Common to all, as to test: DTP human tumour cell line panel, 48 h
Assay [1] has as its system IGROV1 ovarian.
In assay [2] the test system is MDA-MB-231 breast.
The test system of assay [3] is K-562 leukemia.
The subject of assay [4] is HT29 colon.
Assay [5] concerns HCT-15 colon.
Assay [6] relates to HS 578T breast.
Assay [7] relates to MDA-N.
In assay [8] the test system is SNB-19 CNS.
The test system of assay [9] is T-47D breast.
The test system of assay [10] is UACC-62 melanoma.

The structures appear in SMILES notation. Values joined by “and” are separate entries in the source; they are usually repeats but may differ in a detail not shown here. Equal entries are not always repeated.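 Cells were grown in 96-well plates and exposed to each compound for 48 hours at five concentrations; endpoints were interpolated linearly between bracketing concentrations, or set to the highest concentration if not reached. The concentration for 50% growth inhibition is given as GI50. TGI: total growth inhibition.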 Some results are limits rather than exact numbers.

The term TGI denotes the concentration giving total growth inhibition. Read a low TGI as more potent growth arrest. Broadly, the GI50 is the concentration at which growth is held to half of that of the control.

With `O=C(Nc1nnc(-c2ccccc2)o1)C(SC(=S)N1CCCCC1)c1ccccc1` (stereo not drawn), the TGI is > 100 µM in [1]; > 100 µM in assay [2]; > 100 µM in [3]; 70 µM in assay [4]; 29.1 µM in assay [5]; > 100 µM in assay [6]. Moreover, the results for the TGI in assay [7], in assay [8] and in assay [9] were 69.9 µM, > 100 µM and > 100 µM, respectively.
As for `CN(C)c1ccc(/C=c2/c3ccccc3n3c2c2ccccc2[n+]3C)cc1`, the concentration for total growth inhibition (TGI) in [1] worked out at 2.27 µM; in assay [2] it was 2.42 µM; in [3], 4.71 µM; in [5], 2.41 µM; in [10] it was 0.998 µM; in assay [6] it was 4.42 µM. Also, the TGI in assay [7] stood at 1.89 µM; in [8] it was 4.76 µM; in [9] it was 1.51 µM.
Consider `COc1ccc(/C=C2\CCC(C)C3=C(c4ccc(OC)c(OC)c4)C(C#N)=C(N)OC32)cc1OC` (stereo not drawn), for which the concentration for total growth inhibition (TGI) in assay [1] is 9.45 µM; in assay [2] it was 17.5 µM; in [3], > 100 µM; in assay [5] it was 38 µM; in assay [10], 7.34 µM; in assay [6], > 100 µM. For the same molecule, the values for the total growth inhibition concentration (TGI) in assay [7], in [8] and in assay [9] were 12.1 µM, > 100 µM and 7.97 µM, respectively.
In the case of `CCNC(C)Cc1ccccc1` (stereo not drawn), the TGI in assay [1], in assay [3], in assay [4], in assay [5], in assay [10] and in assay [8] was > 100 µM throughout.
On to `NCCSc1nc2ccccc2s1`, for which the TGI in [1], in assay [2], in assay [3], in [4], in [5] and in assay [10] was > 100 µM in each case. The TGI in assay [6] is 76.4 µM; in assay [7] it was > 100 µM; in assay [8], > 100 µM.
Regarding `ClCCCN(CCCCl)c1ccc(C=Nc2cccc(Cl)c2)cc1`, the concentration for total growth inhibition (TGI) is > 100 µM in [1]; > 73.7 µM in assay [2]; > 83.9 µM in assay [3]; > 100 µM in [4]; > 100 µM in assay [5]; 15.4 µM in assay [10]. For the same molecule, the TGI in assay [6] was 71.8 µM; in [8], > 100 µM; in assay [9], 44.8 µM.
Take `NCC(=O)NC1(c2cc3ccccc3s2)CCCCC1`: the TGI in assay [1] was > 100 µM; in [3], 24.6 µM; in assay [4] it was 54.8 µM; in assay [5], > 100 µM; in [10], 44.5 µM; in assay [6] it was 99.5 µM. The TGI in assay [7], in assay [8] and in assay [9] was > 100 µM in each case.
Take `COc1cc(C=O)ccc1Oc1nnnn1-c1ccccc1`: the concentration for total growth inhibition (TGI) in [1], in assay [2], in assay [3], in [4], in assay [5] and in assay [6] was > 100 µM throughout. For the same molecule, the total growth inhibition concentration (TGI) is > 100 µM in [7], > 100 µM in assay [8] and 58 µM in [9].
On to `CC1(C)CCC[C@@]2(C)C1CCC1(C)C(CCc3ccoc3)/C(=C/OS(=O)(=O)O)CCC12` (stereo partly drawn) (tested in a mixture with another compound), for which the concentration for total growth inhibition (TGI) in assay [1], in [3], in assay [4], in assay [5], in [10] and in assay [8] was > 100 µM each time.
`N#CN=C(N)c1sc2nc3c(c(-c4ccc(Br)cc4)c2c1N)CCCC3`: the TGI in [2] is 70.8 µM; in assay [3] it was > 100 µM; in assay [4], 48.8 µM; in [5], 44.7 µM; in [10], 51.3 µM; in assay [7] it was 34.4 µM. In assay [8], the TGI was > 100 µM.
For the molecule `CC[C@@]1(N(C)C)C(=O)OCc2c1cc1n(c2=O)Cc2cc3ccccc3nc2-1`, the TGI in assay [2] is > 100 µM; in assay [3], > 100 µM; in [5] it was > 100 µM; in assay [10], 56.6 µM; in [8], > 100 µM; in [9] it was 52.6 µM.
For `O=C(Nc1cccc(-n2ccc3c(NC(=O)c4ccccc4)nccc32)c1)c1ccc(N2CCOCC2)c(C(F)(F)F)c1`, the 50% growth inhibitory concentration (GI50) was 0.057 µM in [1]; 0.127 µM in [2]; 0.0387 µM in assay [3]; 0.038 µM in assay [4]; 0.037 µM in assay [5]; 0.0414 µM in [10]. Besides, the results for the GI50 in [6] and in assay [8] were 0.272 µM and 0.058 µM, respectively. In addition, the concentration for total growth inhibition (TGI) in [1] was > 75.4 µM; in assay [2], 3.42 µM; in [3], > 100 µM; in [5], > 64.7 µM; in assay [10], 22.5 µM; in assay [6], 98.6 µM. The TGI in assay [8] is > 100 µM.
Turning to `Oc1ccc(-c2csc(NNC3=NC/C(=C/c4ccc5c(c4)OCO5)S3)n2)cc1O`, the TGI was 65.3 µM in [1]; > 100 µM in assay [2]; > 100 µM in [4]; > 100 µM in [5]; > 100 µM in [7]; > 100 µM in assay [8]. In addition, the TGI in assay [9] is > 100 µM.
Turning to `OC1[C@H]([C@H]2CCCC[C@@H]2O)CCC[C@@H]1[C@@H]1CCCC[C@H]1O` (stereo partly drawn), the TGI in [1], in [3], in assay [4], in assay [5], in [10] and in assay [8] was > 100 µM in each case.
With `CC[C@]1(O)C[C@H]2CN(CCc3c([nH]c4ccccc34)[C@@](C(=O)OC)(c3cc4c(cc3OC)N(C=O)[C@H]3[C@@](O)(C(=O)OC)[C@H](OC(C)=O)[C@]5(CC)C=CCN6CC[C@]43[C@@H]65)C2)C1`, the 50% growth inhibitory concentration (GI50) was 0.00138 µM in assay [2], < 0.001 µM in [7] and 112 µM in assay [9]. In addition, the total growth inhibition concentration (TGI) in [4] is 27.2 µM; in assay [10], 38.4 µM and 75.1 µM; in assay [8], 43.1 µM and 17.7 µM; in assay [9] it was 399 µM and 171 µM.

Source of the values: PubChem BioAssay (NCI).
